# PubChem BioAssay (NCI)
# Values joined by “and” are separate entries in the source; they are usually repeats but may differ in a detail not shown here. Equal values may be shown once.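 Dose response: 5 concentrations. Exposure: 48 h. Format: 96-well plates. Endpoint: linear interpolation; highest concentration if not reached. GI50 marks 50% less growth. At the TGI there is no net growth.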
# Key:
# Experiment in all cases: DTP human tumour cell line panel, 48 h
# [1] = system: COLO 205 colon
# [2] = system: RXF 393 renal
# [3] = system: NCI-H460 lung
# [4] = system: DU-145 prostate
# [5] = system: NCI-H226 lung
# [6] = system: UO-31 renal
# [7] = system: SNB-75 CNS
# [8] = system: SN12C renal
# [9] = system: OVCAR-3 ovarian
# [10] = system: UACC-62 melanoma
Structure (SMILES),GI50 [1],TGI [1],GI50 [2],TGI [2],GI50 [3],TGI [3],GI50 [4],TGI [4],GI50 [5],TGI [5],GI50 [6],TGI [6],GI50 [7],TGI [7],GI50 [8],TGI [8],GI50 [9],TGI [9],GI50 [10],TGI [10]
COc1ccc(-c2nc(-c3nc4ccc(C)cc4[nH]3)cc3c2[nH]c2ccccc23)cc1,2.83 µM,8.21 µM,3.82 µM,> 100 µM,2.99 µM,> 100 µM,5.02 µM,> 100 µM,4.81 µM,58.7 µM,2.99 µM,> 100 µM,3.43 µM,> 100 µM,3.96 µM,> 100 µM,3.59 µM,12 µM,3.34 µM,23.1 µM
Cc1cc(-c2c(F)cc3c4nn([C@H]5CC[C@@H](N(C)C)CC5)c(=O)c-4cn(C4CC4)c3c2F)cc(C)n1,0.0366 µM,0.0936 µM and 0.889 µM,–,1.39 µM,–,0.273 µM,–,8.71 µM,0.0368 µM,0.118 µM and 0.586 µM,0.275 µM,0.566 µM and 3.29 µM,0.158 µM,0.19 µM and 0.54 µM,0.0207 µM,0.0888 µM,–,2.66 µM,0.0468 µM,0.255 µM and 0.754 µM
Cc1ccc(-c2nc(/C=N/Nc3cc(C)nc4ccc(Cl)cc34)c(C)o2)cc1,1.76 µM,3.57 µM,1.45 µM,2.94 µM,1.93 µM,3.79 µM,2.49 µM,6.67 µM,1.84 µM,3.72 µM,1.62 µM,2.98 µM,1.55 µM,3.2 µM,1.79 µM,3.49 µM,1.94 µM,3.56 µM,1.77 µM,3.43 µM
O=C1CSC(c2ccccc2Cl)N1c1nnc(Cn2cnnc2)o1 (stereo unspecified),10.5 µM,23.2 µM,24.3 µM,79.4 µM,7.91 µM,43.8 µM,19.7 µM,44.3 µM,17.3 µM,36.1 µM,30.8 µM,> 100 µM,3.19 µM,41.8 µM,23.1 µM,76.3 µM,3.4 µM,10.7 µM,7.55 µM,27.5 µM
COc1ccccc1S(=O)(=O)Nc1ccc2c3c(cc(CCC(=O)NCCCCNc4cccc5c4C(=O)N(C4CCC(=O)NC4=O)C5=O)cc13)C(=O)N2C (stereo unspecified),0.459 µM,8.08 µM,0.862 µM,4.5 µM,> 100 µM,> 100 µM,5.68 µM,> 100 µM,0.456 µM,4.79 µM,2.4 µM,> 100 µM,0.0718 µM,0.828 µM,0.462 µM,> 100 µM,2.21 µM,> 100 µM,13.4 µM,> 100 µM
CCCc1cc(=O)n2c(C(=O)Nc3ccc(F)cc3)c(C(=O)Nc3ccc(F)cc3)sc2n1,160 µM,> 160 µM,4.41 µM,13 µM,73.4 µM,> 160 µM,124 µM,> 160 µM,1.71 µM,16.3 µM,27.6 µM,101 µM,3.48 µM,13.8 µM,–,–,22.9 µM,49.8 µM,36.8 µM,> 160 µM
CC/C(Cc1ccccc1)=C(\c1ccc(OCCN2CCCC2)cc1)c1ccc(OC(=O)NCc2ccccc2)cc1,2.11 µM,4.28 µM,1.77 µM,3.28 µM,1.89 µM,3.42 µM,2.14 µM,4.7 µM,3.52 µM,14.2 µM,1.61 µM,3 µM,2.13 µM,6.53 µM,1.81 µM,3.33 µM,1.86 µM,3.56 µM,1.81 µM,3.24 µM
NC(=O)c1ccc(Oc2nccc(-c3c(-c4ccc(F)cc4)ncn3C3CCNCC3)n2)cc1,> 25 µM,> 25 µM,> 25 µM,> 25 µM,> 25 µM,> 25 µM,> 25 µM,> 25 µM,> 25 µM,> 25 µM,> 25 µM,> 25 µM,> 25 µM,> 25 µM,> 25 µM,> 25 µM,> 25 µM,> 25 µM,> 25 µM,> 25 µM
CCCCCCSSC(=S)N(CC)CC,–,–,17.1 µM,32.9 µM,–,–,28.7 µM,92.9 µM,35.4 µM,> 100 µM,18.1 µM,34.9 µM,16.8 µM,47.6 µM,18.3 µM,40.3 µM,17.8 µM,34.3 µM,17.2 µM,36.9 µM
S=C1Cc2c(-c3ccc(Br)cc3)cc(-c3ccccc3)nc2-c2ccccc2N1,–,21.4 µM,–,6.01 µM,–,2.66 µM,–,10.3 µM,–,8.54 µM,–,4.77 µM,–,3.35 µM,–,2.97 µM,–,6.93 µM,–,5.45 µM
COC(=O)c1c(-c2cccs2)oc(-c2cccs2)c1C(=O)OC,26.7 µM,> 86.3 µM,31 µM,> 100 µM,33.1 µM,> 100 µM,> 100 µM,> 100 µM,38.2 µM,98.3 µM,19.3 µM,60.1 µM,> 73.6 µM,> 100 µM,61.6 µM,> 100 µM,30.4 µM,> 94.5 µM,27.3 µM,> 100 µM
COc1ccc(/C=C/c2c(C(=O)/C=C/c3ccc(C(F)(F)F)cc3)c(C)nc3ccccc23)cc1,2.1 µM,4.67 µM,1.74 µM,3.52 µM,1.87 µM,4.22 µM,1.76 µM,3.71 µM,1.85 µM,4.01 µM,1.11 µM,2.33 µM,1.43 µM,2.85 µM,2.02 µM,5.66 µM,1.64 µM,3.48 µM,1.6 µM,3.42 µM
CSc1nc2nc3c(nc2c(=O)n1C)C(=O)c1ccccc1C3=O,0.173 µM,0.357 µM,0.253 µM,0.819 µM,0.101 µM,0.393 µM,0.216 µM,0.623 µM,0.193 µM,0.461 µM,0.236 µM,0.768 µM,0.128 µM,0.266 µM,0.157 µM,0.307 µM,0.0378 µM,0.21 µM,0.0467 µM,0.183 µM
CCCCC#Cc1c(I)n(C)c(=O)[nH]c1=O,1.93 µM,3.58 µM,2.6 µM,5.91 µM,20.1 µM,39.7 µM,4.42 µM,15.4 µM,14.4 µM,27.4 µM,2.59 µM,10.2 µM,12.3 µM,24.7 µM,13.2 µM,26.5 µM,1.54 µM,2.88 µM,3.39 µM,12.2 µM
C#C[C@@]1(O)[C@@H](CO)O[C@@H](n2cc(I)c3c(N)ncnc32)[C@@H]1O,0.0874 µM,0.706 µM,0.44 µM,2.26 µM,0.0895 µM,1.91 µM,0.127 µM,> 100 µM,1.72 µM,> 100 µM,0.0901 µM,3.19 µM,0.457 µM,1.99 µM,0.0976 µM,> 100 µM,–,–,0.615 µM,2.78 µM
O=C(/C=C/C=C/c1ccccc1)c1ccco1,17.9 µM,31.7 µM,9.78 µM,24.6 µM,21 µM,47.5 µM,12.5 µM,25.4 µM,20.7 µM,50.2 µM,10.6 µM,22.6 µM,18 µM,72.5 µM,16 µM,34.9 µM,14.2 µM,27.6 µM,14.6 µM,28.4 µM
COc1cccc2cc(N(C)c3nc(C)nc4c3CCC4)ccc12,< 0.01 µM,< 0.01 µM,< 0.01 µM,23.7 µM,< 0.01 µM,12.4 µM,< 0.01 µM,12 µM,12.7 µM,32.4 µM,< 0.0104 µM,18.1 µM,–,24.2 µM,< 0.01 µM,22.4 µM,< 0.01 µM,< 0.01 µM,–,18.1 µM
CN(C)CC1CC/C(=C\c2ccc3c(c2)OCO3)C1=O (stereo unspecified),–,18 µM,–,29.1 µM,–,47.9 µM,–,19.7 µM,–,50.6 µM,–,24.8 µM,–,28.5 µM,–,30.3 µM,–,15.3 µM,–,30.4 µM
C#CC1=CC(=O)C(OC)=CC1=O,–,> 100 µM,–,30.1 µM,–,> 100 µM,–,37.4 µM,–,42 µM,–,14.3 µM,–,18.5 µM,–,31.7 µM,–,> 100 µM,–,29.2 µM
ClCc1ccccc1Cn1cnc2ncnc(Cl)c21,4.33 µM,> 100 µM,1.65 µM,6.5 µM,13.5 µM,60.9 µM,2.93 µM,10.1 µM,3.35 µM,7.89 µM,3.22 µM,10.7 µM,11.3 µM,26.6 µM,2.96 µM,8.5 µM,2.06 µM,4.16 µM,1.88 µM,5.12 µM
O=C(CN(/C=C/C(=O)C(F)(F)F)c1ccc(Cl)cc1)c1ccc(Cl)c(Cl)c1,14.2 µM,39.4 µM,14.1 µM,36.1 µM,3.18 µM,9.36 µM,16.7 µM,33.4 µM,12.5 µM,30.1 µM,5.65 µM,18.8 µM,13.6 µM,31.6 µM,2.38 µM,5.43 µM,3.23 µM,11.3 µM,3.98 µM,16.1 µM
CCN(CC)CCCC(C)Nc1cc(-c2cccc(OC(F)(F)F)c2)nc2ccc(N3CCCC3)cc12 (stereo unspecified),0.213 µM,1.51 µM,0.0357 µM,89.1 µM,0.0377 µM,3.66 µM,0.0782 µM,13.6 µM,0.189 µM,9.57 µM,0.0699 µM,44.3 µM,0.0361 µM,59.4 µM,0.124 µM,16.1 µM,0.0305 µM,0.382 µM,0.0484 µM,20.9 µM
COC(=O)Nc1nc2ccccc2[nH]1,–,> 100 µM,–,> 100 µM,–,> 100 µM,–,> 87 µM,–,> 100 µM,–,> 100 µM,–,> 73.8 µM,–,> 100 µM,–,28.6 µM,–,> 100 µM
CC(C)OC(=S)Nc1ccc(Cl)c(/C=N/OC(C)(C)C)c1,–,32.3 µM,–,30.9 µM,–,33.1 µM,–,17.6 µM,–,34.2 µM,–,27.2 µM,–,54.7 µM,–,31.6 µM,–,33.6 µM,–,30.9 µM
O=C1/C(=C/c2ccc(F)cc2)CN(C(=O)CCN2CCC(=NO)CC2)C/C1=C\c1ccc(F)cc1,1.94 µM,5.5 µM,1.64 µM,3.18 µM,2.02 µM,5.17 µM,2.26 µM,5.17 µM,2.55 µM,8.51 µM,1.37 µM,2.84 µM,2.29 µM,7.5 µM,1.2 µM,3.64 µM,1.14 µM,3.02 µM,0.84 µM,2.41 µM
O=C(Nc1ccccc1I(=O)=O)C1CCCCC1,> 100 µM,> 100 µM,> 100 µM,> 100 µM,> 100 µM,> 100 µM,> 100 µM,> 100 µM,> 100 µM,> 100 µM,> 100 µM,> 100 µM,> 100 µM,> 100 µM,> 100 µM,> 100 µM,> 100 µM,> 100 µM,> 100 µM,> 100 µM
C#Cc1cccc(Nc2nc(Cl)nc3cc(NC(=O)CCl)ccc23)c1,0.586 µM,1.35 µM,0.857 µM,3.38 µM,1.44 µM,4.24 µM,0.806 µM,2.8 µM,1.61 µM,5.27 µM,0.823 µM,3.15 µM,1.13 µM,5.13 µM,0.637 µM,1.8 µM,0.47 µM,0.984 µM,0.82 µM,3.26 µM
